From article PMC6796659, “Topoisomerase IB poisons induce histone H2A phosphorylation as a response to DNA damage in Leishmania infantum” (International Journal for Parasitology: Drugs and Drug …, 2019)
Where two headings read alike, the source gives them in different places.

Key:
[1] = tested on: iRFP L. infantum promastigotes; test: Antileishmanial activity on free-living iRFP L. infantum promastigotes (infrared fluorescence viability); assay type: cell-based; settings: Leishmania infantum, 72 h, 26 °C
Experimental: Histone phosphorylation assays were performed in promastigotes of L. infantum BCN 150 strain, whereas the antiparasitic activity of the compounds was assessed on the transgenic strain that constitutively expresses the irfp gene encoding the infrared iRFP protein (iRFP L. infantum strain) ([Calvo-Álvarez et al., 2015]), which is derived from L. infantum BCN 150. Both strains were grown at 26 °C in M-199 medium (Gibco) supplemented with 25 mM HEPES pH 7.2, 0.1 mM adenine, 0.0005% (w/v) hemin, 2 μg/mL biopterin, 0.0001% (w/v) biotin, 10% (v/v) heat-inactivated fetal bovine serum (FBS) and an antibiotic cocktail comprising 50 U/mL penicillin and 50 μg/mL streptomycin.
(§1) The antileishmanial activity of the compounds was tested both in promastigotes and in amastigotes infecting mouse splenocytes. For this purpose, 384-well optical bottom black plates (Thermo Scientific) were seeded either with free-living iRFP L. infantum promastigotes or with splenic explants infected with iRFP L. infantum amastigotes, which were incubated at 26 °C or 37 °C, respectively. The viability of both iRFP L. infantum stages was measured by recording the fluorescence emitted by viable cells at 708 nm in an Odyssey (Li-Cor) infrared imaging system after a 72-h period of incubation with different concentrations of the compounds. Dose-response curves were obtained by plotting the infrared fluorescence emission of viable parasites vs. different concentrations of testing compounds and were fitted by nonlinear analysis using the Sigma-Plot 10.0 statistical package. The reduction of infrared emission with respect to the negative control was used to determine the 50% effective concentration to kill the parasites (EC50). Both controls and treated groups were tested with DMSO (drug vehicle) concentrations below 0.1%. All compounds and controls were assayed in triplicate.

[2] = tested on: iRFP L. infantum amastigotes infecting mouse splenocytes; test: Antileishmanial activity on iRFP L. infantum amastigotes in ex vivo murine splenic explants; assay type: cell-based, Leishmania infantum; settings: for SI (Selectivity Index): CC50 (splenocytes)/EC50 (amastigotes); for EC50: Leishmania infantum, Splenocyte, splenic-infecting iRFP L. infantum amastigotes, 72 h, 37 °C, read-out: EC50 (μM) L. infantum amastigotes
Experimental: Five-week BALB/c female mice infected intraperitoneally with 1.5 × 10^9 metacyclic iRFP L. infantum promastigotes were sacrificed to eviscerate their spleens, which were processed to obtain a suspension of primary splenocytes. Briefly, freshly dissected spleens were washed with cold phosphate-buffered saline (PBS), cut in small pieces and incubated for 20 min with 5 mL of 2 mg/mL collagenase D (Sigma) prepared in buffer (10 mM HEPES, pH 7.4, 150 mM NaCl, 5 mM KCl, 1 mM MgCl2 and 1.8 mM CaCl2). Then, the cell suspension was passed through a 100 μm cell strainer, harvested by centrifugation (500×g for 7 min at 4 °C), washed twice with PBS, and resuspended in RPMI medium (Gibco) supplemented with 10 mM HEPES, 1 mM sodium pyruvate, 1xRPMI 1640 vitamin mix, 10% (v/v) FBS, 50 U/mL penicillin and 50 μg/mL streptomycin. The cell suspension was cultured in 384-well optical bottom black plates (Thermo Scientific) at 37 °C under 5% CO2 atmosphere.
as §1

[3] = Cytotoxicity on uninfected mouse splenocytes (Alamar Blue); assay type: cell-based; settings: BALB/c, freshly isolated uninfected mouse splenocytes, non-infected mouse splenocytes, read-out: CC50 (μM) Murine Splenocytes
Experimental: Finally, the cytotoxicity of the compounds was assessed on freshly-isolated mouse splenocytes, which were obtained from uninfected BALB/c mice according to the protocol previously described. Viability of uninfected splenocytes was used to determine the cytotoxic concentration 50 (CC50) by means of the Alamar Blue staining method, according to manufacturer's recommendations (Invitrogen). Selectivity index (SI) for each compound was calculated as the ratio between the CC50 value obtained for splenic cells and the EC50 value for amastigotes.

[4] = tested on: Leishmania topoisomerase IB (LTopIB); test: Relaxation of supercoiled pSK DNA by recombinant LTopIB; assay type: biochemical
Experimental: (§2) Expression and purification of LTopIB and hTopIB were carried out according to a previously standardized protocol ([Villa et al., 2003]). The effect of indenoisoquinolines (compounds 1 to 20) on recombinant LTopIB and hTopIB was determined by measuring the relaxation of negatively supercoiled pBluescript-SK DNA plasmid (pSK). Briefly, in a total volume of 20 μL, 100 U of recombinant TopIB were incubated with 0.5 μg of pSK DNA in 10 mM Tris-HCl buffer (pH 7.5), 5 mM MgCl2, 5 mM dithiothreitol (DTT), 0.1 mM EDTA, […] bovine serum albumin, and 150 mM KCl. Different concentrations of indenoisoquinolines were also added. Following a 4-min incubation period at 25 °C, reactions were stopped with 1% (w/v) SDS, and incubated for one extra hour at 37 °C in the presence of 1 mg/mL proteinase K. Subsequently, samples were extracted with 1 vol phenol-chloroform mixture and were loaded on a 1% agarose gel containing 0.1 μg/mL ethidium bromide. The gel was run for 16 h at 4 V/cm, and the images were acquired using a G-Box system (Syngene, United Kingdom).

human Top IB (hTopIB) = target: T1, human Top IB (hTopIB) (Homo sapiens, UniProt P11387); test: Relaxation of supercoiled pSK DNA by recombinant hTopIB; assay type: biochemical
T1 construct: made in house
T1 sequence (P11387 1-765): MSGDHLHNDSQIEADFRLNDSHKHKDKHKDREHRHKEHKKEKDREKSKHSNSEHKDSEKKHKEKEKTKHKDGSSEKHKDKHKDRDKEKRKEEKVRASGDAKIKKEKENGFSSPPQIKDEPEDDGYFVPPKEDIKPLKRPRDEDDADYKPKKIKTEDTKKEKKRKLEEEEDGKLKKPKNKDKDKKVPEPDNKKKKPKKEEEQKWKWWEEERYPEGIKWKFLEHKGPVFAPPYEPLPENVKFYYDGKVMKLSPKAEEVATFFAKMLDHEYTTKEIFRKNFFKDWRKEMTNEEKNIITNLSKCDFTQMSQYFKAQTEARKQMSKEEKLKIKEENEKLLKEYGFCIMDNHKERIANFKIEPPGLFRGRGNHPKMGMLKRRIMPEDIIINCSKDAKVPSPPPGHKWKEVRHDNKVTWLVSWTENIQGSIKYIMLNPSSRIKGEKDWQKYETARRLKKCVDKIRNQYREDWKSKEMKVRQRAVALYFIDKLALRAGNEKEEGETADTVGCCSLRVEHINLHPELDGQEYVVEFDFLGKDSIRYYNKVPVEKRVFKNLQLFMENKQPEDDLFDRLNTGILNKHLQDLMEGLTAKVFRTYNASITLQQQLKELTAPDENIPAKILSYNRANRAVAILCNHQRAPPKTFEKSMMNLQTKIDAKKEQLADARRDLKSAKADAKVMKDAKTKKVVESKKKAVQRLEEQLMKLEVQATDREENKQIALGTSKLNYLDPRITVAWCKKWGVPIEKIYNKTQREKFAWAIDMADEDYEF
Experimental: as §2

[5] = tested on: L. infantum promastigotes; test: Cell cycle analysis by flow cytometry (propidium iodide); assay type: cell-based, Leishmania infantum; settings: 1 μM single dose, 0, 8, 24, 48 h
Experimental: One million promastigotes untreated or treated with 1 μM of different indenoisoquinolines were harvested by centrifugation after 0, 8, 24 and 48 h exposure. Promastigotes were washed twice with PBS and fixed by 1 h incubation with 70% methanol at 4 °C. After incubation, cells were centrifuged, washed again with PBS and resuspended in 0.5 mL of citrate buffer (45 mM MgCl2, 20 mM MOPS, 30 mM sodium citrate, 0.1% Triton X-100, pH = 7). Finally, samples with RNAase (50 μg/mL) and propidium iodide ([…]) were incubated at 37 °C during 30 min and analyzed at 589 nm by flow cytometry (Cyan ADP Dako).

[6] = tested on: TopIB-DNA complexes in L. infantum promastigotes; test: SDS/K-DNA precipitation (in situ cleavage complex formation); assay type: cell-based, Leishmania infantum; settings: 30 min exposure, promastigotes
Experimental: In order to measure the fragmentation of DNA induced by Top poisons, L. infantum promastigotes, previously labeled with 0.5 mCi/mL [2–^14C] thymidine for 24 h, were exposed to different concentrations of indenoisoquinolines for 30 min, followed by precipitation with SDS/KCl, according to the method described previously ([Balaña-Fouce et al., 2012]). DNA fragmentation was determined as the percentage of total labeled DNA, and was calculated as follows: [(dpm in SDS/KCl drug - dpm in SDS/KCl solvent)/(dpm total incorporation)] x 100. Each experiment was run at least in triplicate.

[7] = tested on: histone H2A (Thr128) in L. infantum promastigotes; test: Histone H2A phosphorylation (γH2A) by Western blot; assay type: cell-based, Leishmania infantum; settings: 10 μM, 0, 15, 60, 120 min
Experimental: To detect H2A phosphorylation by L. infantum promastigotes, parasites in exponential growing phase (5–6 x 10^6 cells/mL) were incubated at 26 °C with CPT derivatives and indenoisoquinolines at a final concentration in the supplemented 199 standard medium of 10 μM. Control cells were treated with the drug vehicle DMSO using concentrations below 0.1%. After 0, 15, 60 and 120-min incubations, promastigotes were harvested by centrifugation, washed twice in PBS and the pellet resuspended in lysis buffer containing 50 mM Tris (pH:7), 50 mM NaCl, 20 mM NaF, 0.1% Tween 20 and 2x protease inhibitors (PIERCE™ protease inhibitor mini tablets). Twenty micrograms of the different extracts were loaded onto 15% SDS-PAGE gels, electrophoresed and transferred to PVDF membranes (Immobilon-FL, Millipore) using a mini trans-blot electrophoretic transfer cell (Bio-Rad). Polyclonal γH2A antisera were used at a 1:2000 dilution and secondary goat anti-rabbit IgG IRDye680 (Li-Cor Biosciences) was used at a 1:15000 dilution. The peptide competition assay was done incubating the polyclonal γH2A antisera with 50 ng/mL of the appropriate peptide (with and without phosphorylation at Thr residue) in blocking buffer for 1 h at room temperature before blotting. Loading control was performed using a monoclonal α tubulin mouse antibody at 2 μg/mL (final concentration) and a goat anti-mouse IgG IRDye 800 (Li-Cor Biosciences) as secondary antibody. Bands were visualized in an Odissey® (Li-Cor Biosciences) infrared detection facility. The quantification of γH2A signal was done with Bio-Rad Quantity One Analysis Software.

[8] = tested on: iRFP L. infantum amastigotes infecting mouse splenocytes; settings: ref Prada et al., 2013; cited from earlier work

| SMILES | EC50 [1] | SI (Selectivity Index) [2] | EC50 [2] | CC50 [3] | effect on cell cycle of promastigotes [5] | γH2A signal (H2A phosphorylation), Western blot [7] | further results |
| --- | --- | --- | --- | --- | --- | --- | --- |
| NCCCn1c2c(c3ccc([N+](=O)[O-])cc3c1=O)C(=O)c1cc(F)ccc1-2 [Compound 7] | 1.28 ± 0.08 µM | 8.4 | 0.04 µM | 0.3 ± 0.07 µM | arrested the cell cycle of promastigotes in S phase |  | LTopIB inhibition ([4]; Table 1): ++ (inhibition at 10 μM); hTopIB inhibition (human Top IB (hTopIB); Table 1): +++ (inhibition at 1 μM); maximum percentage of SDS/K-DNA precipitable complexes [6]: 33% |
| CCc1c2c(nc3ccc(O)cc13)-c1cc3c(c(=O)n1C2)COC(=O)[C@]3(O)CC [SN38] |  |  |  |  |  | clear increase in the intensity of the 14-kDa band |  |
| COc1ccc2c(c1)C(=O)c1c-2n(CCCn2ccnc2)c(=O)c2cc([N+](=O)[O-])ccc12 [Compound 12] | > 10 µM | 33 | 0.01 µM | 0.33 ± 0.05 µM | arrested the cell cycle of promastigotes in S phase |  | LTopIB inhibition ([4]; Table 2): ++ (inhibition at 10 μM); hTopIB inhibition (human Top IB (hTopIB); Table 2): +++ (inhibition at 1 μM) |
| COc1cnc2c(c1)C(=O)c1c-2n(CCCN2CCOCC2)c(=O)c2cc(OC)c(OC)cc12 [Compound 18] | 0.53 ± 0.07 µM | 29.3 | 0.13 ± 0.01 µM | 3.81 ± 0.51 µM | arrested the cell cycle of promastigotes in S phase |  | LTopIB inhibition ([4]; Table 3): ++ (inhibition at 10 μM); hTopIB inhibition (human Top IB (hTopIB); Table 3): ++ (inhibition at 10 μM) |
| CC[C@@]1(O)C(=O)OCc2c1cc1n(c2=O)Cc2cc3ccccc3nc2-1 [CPT, camptothecin] |  |  |  |  |  | clear increase in the intensity of the 14-kDa band | EC50 [8]: 30 nM |
| CC[C@@]1(O)C(=O)OCc2c1cc1n(c2=O)Cc2cc3c(CN(C)C)c(O)ccc3nc2-1 [TPT, topotecan] |  |  |  |  |  | clear increase in the intensity of the 14-kDa band |  |
